Assay results taken from patent publication US12384769B2, “Heteroaryl-substituted aminoalkyl azole compounds as pesticides” (Elanco Animal Health GmbH, priority 2019, dated 2025).

Key:
Format in all cases: in vivo
[1] = tested on: Boophilus microplus; experiment: Boophilus microplus injection test (BOOPMI Injection); conditions: Rhipicephalus microplus, 168 h; 20 μg/animal, injection into adult engorged female ticks, egg deposition after 7 days; read-out: activity (efficacy, infertile eggs)
Procedure, shortened: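 Adult engorged female ticks (5 per group) injected into the abdomen with 1 μL compound in DMSO, then held in a climate chamber. Fertile egg deposition scored after 7 days, with unclear eggs kept until hatching (~42 days). Efficacy 100% = all eggs infertile, 0% = all fertile.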

[2] = tested on: Rhipicephalus microplus (strain Parkhurst, resistant against synthetic pyrethroids); experiment: Rhipicephalus microplus in-vitro contact test, larval cattle tick (BOOPMI Contact); conditions: 5 μg/cm^2 (=500 g/ha), after 48 hours, read-out: activity (efficacy, larvae dead or moribund)
Procedure, shortened: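 Glass tubes coated with compound in acetone (900 ppm giving 5 μg/cm²), dried, then loaded with 20-50 pyrethroid-resistant Parkhurst larvae and held at 27 °C, 85% RH. After 48 h negative geotaxis is scored; efficacy in % dead or moribund larvae.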

[3] = tested on: Meloidogyne incognita; experiment: Meloidogyne incognita test; conditions: 20 ppm, after 14 days
Experimental: Meloidogyne incognita—Test
Solvent: 125.0 parts by weight of acetone
To produce a suitable preparation of active compound, 1 part by weight of active compound is mixed with the stated amount of solvent, and the concentrate is diluted with water to the desired concentration.
Vessels are filled with sand, a solution of the active ingredient, a suspension containing eggs and larvae of the southern root-knot nematode (Meloidogyne incognita) and salad seeds. The salad seeds germinate, and the seedlings grow. Galls develop in the roots.
After 14 days the nematicidal activity is determined based on the percentage of gall formation. 100% means no galls were found and 0% means the number of galls found on the roots of the treated plants was equal to that in untreated control plants.

[4] = tested on: Myzus persicae; experiment: Myzus persicae spray test; conditions: foliar, 120 h, Chinese cabbage leaf disks, after 5 days
Experimental: Myzus persicae—Spray Test
(§1) Solvent: 78.0 parts by weight acetone • 1.5 parts by weight dimethylformamide
(§2) Emulsifier: alkylarylpolyglycol ether
(§3) To produce a suitable preparation of active compound, 1 part by weight of active compound is mixed with the stated amount of solvents and is diluted with water, containing an emulsifier concentration of 1000 ppm, to the desired concentration. Further test concentrations are prepared by dilution with emulsifier containing water.
Chinese cabbage (Brassica pekinensis) leaf disks infected with all instars of the green peach aphid (Myzus persicae), are sprayed with a preparation of the active ingredient of the desired concentration.
(§4) After 5 days mortality in % is determined. 100% means all aphids have been killed and 0% means none of the aphids have been killed.

[5] = tested on: Ctenocephalides felis; experiment: Ctenocephalides felis in-vitro contact test, adult cat flea; conditions: 5 μg/cm^2 (=500 g/ha), after 48 hours, read-out: activity (efficacy, fleas dead or moribund)
Procedure, shortened: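 Acetone solutions coated onto inner walls of glass tubes; 900 ppm gives 5 μg/cm^2. After drying, 5-10 adult Ctenocephalides felis per tube held 48 h at room temperature. Fleas then placed on 45-50° C. plate for up to 5 min; those unable to climb away scored dead or moribund, efficacy as % dead/moribund.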

[6] = tested on: Rhipicephalus sanguineus; experiment: Rhipicephalus sanguineus in-vitro contact test, adult brown dog ticks (RHIPSA Contact); conditions: 5 μg/cm^2 (=500 g/ha), after 48 hours, read-out: activity (efficacy, ticks dead or moribund)
Procedure, shortened: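 Acetone solution coated onto glass tube walls; 900 ppm gives 5 μg/cm^2. After drying, 5-10 adult ticks per tube kept at room temperature for 48 h, then placed on a 45-50° C heating plate up to 5 min; ticks unable to climb away counted dead or moribund, efficacy as % affected.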

[7] = tested on: Diabrotica balteata; experiment: Diabrotica balteata spray test; conditions: 168 h, wheat seeds, after 7 days, read-out: activity (efficacy, seedlings grown); for pest or weed control at 160 µg/disc, 500 g/ha: 500 g/ha (=160 μg/well)
Procedure, shortened: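 Germinated wheat seedlings (5 per well, on agar) sprayed with compound in acetone/DMF with emulsifier-containing water, then infested with 10–20 Diabrotica balteata larvae. Efficacy (%) scored after 7 days from seedling growth: 100% = growth as untreated uninfested control, 0% = no seedlings grown.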

[8] = tested on: Myzus persicae; experiment: Myzus persicae oral test; conditions: 120 h, after 5 days
Experimental: Solvent: 100 parts by weight acetone
Afterwards the plates are sealed with parafilm through which a mixed population of the green peach aphid (Myzus persicae) can suck on the compound preparation.
as §4

[9] = tested on: Spodoptera frugiperda; experiment: Spodoptera frugiperda spray test; conditions: in Zea mays, 168 h, read-out: activity (mortality)
Procedure, shortened: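 Compound in acetone/DMF, diluted in water with 1000 ppm alkylarylpolyglycol ether emulsifier, sprayed on maize leaf sections. Dried leaves infested with fall armyworm larvae; % mortality after 7 days (100% = all killed, 0% = none).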

[10] = tested on: Aedes aegypti strain MONHEIM; experiment: Aedes aegypti test (AEDSAE surface treatment & contact assay); conditions: 30 minutes exposure, 24 hours after contact, read-out: efficacy (mortality); for mortality at 4 mg/m2: surface concentration 4 mg/m^2, glazed tile; for mortality at 20 mg/m2: surface concentration 20 mg/m^2, glazed tile
Experimental: Aedes aegypti Test (AEDSAE Surface Treatment & Contact Assay)
(§5) Solvent: Aceton+2000 ppm rapeseed oil methyl ester (RME)
(§6) In order to produce a sufficient, active ingredient containing solution it is necessary to solve the test compound in the solvent-mix (acetone at 2 mg/mL/RME 2000 ppm). This solution is pipetted onto a glazed tile and after evaporation of the acetone, adult mosquitoes of the species Aedes aegypti strain MONHEIM are placed onto the dried surface. The exposure time is 30 minutes.
(§7) Mortality in percent (%) is determined 24 hours after contact of the insects to the treated surface. 100% mortality means that all tested insects are dead, whereas 0% means that no insect died.

[11] = tested on: Anopheles funestus strain FUMOZ-R; experiment: Anopheles funestus test (ANPHFU surface treatment & contact assay); conditions: 30 minutes exposure, 24 hours after contact, read-out: efficacy (mortality); for mortality at 4 mg/m2: surface concentration 4 mg/m^2, glazed tile; for mortality at 20 mg/m2: surface concentration 20 mg/m^2, glazed tile
Experimental: Anopheles funestus Test (ANPHFU Surface Treatment & Contact Assay)
as §5
as §6, with “Anopheles funestus” for “Aedes aegypti”, “FUMOZ-R (Hunt et al., Med. Vet. Entomol. 2005 September; 19(3): 271-275)” for “MONHEIM”
as §7

[12] = tested on: Musca domestica strain WHO-N; experiment: Musca domestica test (MUSCDO surface treatment & contact assay); conditions: 30 minutes exposure, 24 hours after contact, read-out: efficacy (mortality); for mortality at 4 mg/m2: surface concentration 4 mg/m^2, glazed tile
Experimental: Musca domestica Test (MUSCDO Surface Treatment & Contact Assay)
as §5
as §6, with “flies” for “mosquitoes”, “Musca domestica” for “Aedes aegypti”, “WHO—N” for “MONHEIM”
as §7

[13] = tested on: Ctenocephalides felis; experiment: Ctenocephalides felis oral test (CTECFE); conditions: 48 h, 100 ppm in cattle blood, after 2 days
Procedure, shortened: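 About 20 adult unfed fleas fed through parafilm on cattle blood held at 37° C and dosed with compound from a DMSO concentrate; flea chamber at room temperature. Percent mortality scored after 2 days.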

[14] = tested on: Tetranychus urticae; experiment: Tetranychus urticae spray test OP-resistant; conditions: foliar, 144 h, 500 g/ha, French bean leaf disks, after 6 days
Experimental: Tetranychus urticae—Spray Test OP-Resistant
as §1, §2, §3
French bean (Phaseolus vulgaris) leaf disks infected with all instars of the two spotted spidermite (Tetranychus urticae) are sprayed with a preparation of the active ingredient of the desired concentration.
After 6 days mortality in % is determined. 100% means all spider mites have been killed and 0% means none of the spider mites have been killed.

`Cc1nc([C@H](C)Nc2nc3cc(Cl)cc(C(F)(F)F)c3o2)n(-c2ccc(C#N)cn2)n1` [Example I-091, 6-{5-[(1S)-1-{[5-Chlor-7-(trifluormethyl)-1,3-benzoxazol-2-yl]amino}ethyl]-3-methyl-1H-1,2,4-triazol-1-yl)nicotinonitril] was tested, and the pest or weed control at 0.02 mg [1] was 100%, the pest or weed control at 5 µg/cm2 [2] was 90% and the “activity (nematicidal activity, gall formation)” value (“activity” for short) [3] was 90%. For the same compound, the mortality at 500 g/ha [4] was 90%.
Compound `C[C@H](Nc1nc2cc(OC(F)(F)F)c(Cl)cc2o1)c1ncnn1-c1ncc(F)cn1` [Example I-081, 6-Chlor-N-{(1S)-1-[1-(5-fluorpyrimidin-2-yl)-1H-1,2,4-triazol-5-yl]ethyl}-5-(trifluormethoxy)-1,3-benzoxazol-2-amin] has a pest or weed control at 5 µg/cm2 [2] of 90%, a pest or weed control at 5 µg/cm2, 5 µg/cm2 [5] of 100% and a pest or weed control at 5 µg/cm2, 5 µg/cm2 [6] of 100%. For the same compound, the pest or weed control at 100 g/ha [7] was 100%, the mortality at 4 ppm [8] was 90% and the mortality at 100 g/ha [4] was 90%. The mortality at 100 g/ha [9] was 100%, the mortality at 4 mg/m2 [10] was 85 to 100% and the mortality at 20 mg/m2 [10] was 90 to 100%. For the same compound, the mortality at 4 mg/m2 [11] was 85 to 100%, the mortality at 20 mg/m2 [11] was 90 to 100% and the mortality at 4 mg/m2 [12] was 90 to 100%. The mortality at 20 mg/m2 ([12]; surface concentration 20 mg/m^2, glazed tile) was 90 to 100%.
`C[C@H](Nc1nc2cc(C(F)(F)F)c(Cl)cc2o1)c1ncnn1-c1ncc(Cl)cn1` [Example I-059, 6-Chlor-N-{(1)S-1-[1-(5-chlorpyrimidin-2-yl)-1H-1,2,4-triazol-5-yl]ethyl}-5-(trifluormethyl)-1,3-benzoxazol-2-amin] gave a pest or weed control at 5 µg/cm2 [2] of 100%, a pest or weed control at 5 µg/cm2, 5 µg/cm2 [5] of 100% and a pest or weed control at 5 µg/cm2, 5 µg/cm2 [6] of 100%. It also gave a pest or weed control at 100 g/ha [7] of 100%, a mortality at 4 ppm [8] of 90% and a mortality at 100 g/ha [9] of 100%. The mortality at 4 mg/m2 [10] was 85 to 100%, the mortality at 20 mg/m2 [10] was 90 to 100% and the mortality at 4 mg/m2 [11] was 85 to 100%. The mortality at 20 mg/m2 [11] was 90 to 100% and the mortality at 4 mg/m2 [12] was 90 to 100%.
For `C[C@H](Nc1nc2cc(C(F)(F)F)cc(Cl)c2o1)c1ncnn1-c1ccc(Cl)nn1` [Example I-046, 7-Chlor-N-{(1S)-1-[1-(6-chlorpyridazin-3-yl)-1H-1,2,4-triazol-5-yl]ethyl}-5-(trifluormethyl)-1,3-benzoxazol-2-amin], the pest or weed control at 5 µg/cm2 [2] was 80% and the “activity” value [3] was 90%.
Work on `C[C@H](Nc1nc2cc(C(F)(F)F)c(Cl)cc2o1)c1ncnn1-c1ncc(F)cn1` [Example I-061, 6-Chlor-N-{(1S)-1-[1-(5-fluorpyrimidin-2-yl)-1H-1,2,4-triazol-5-yl]ethyl}-5-(trifluormethyl)-1,3-benzoxazol-2-amin] yielded a pest or weed control at 5 µg/cm2 [2] of 100%, a pest or weed control at 5 µg/cm2, 5 µg/cm2 [5] of 100% and a pest or weed control at 5 µg/cm2, 5 µg/cm2 [6] of 80%. It also gave a pest or weed control at 100 g/ha [7] of 100%, a mortality at 4 ppm [8] of 100% and a mortality at 100 g/ha [9] of 100%. It also gave a mortality at 4 mg/m2 [10] of 85 to 100%, a mortality at 20 mg/m2 [10] of 90 to 100% and a mortality at 4 mg/m2 [11] of 85 to 100%. For the same compound, the mortality at 4 mg/m2 [12] was 90 to 100%.
For `C[C@H](Nc1nc2cc(Cl)cc(C(F)(F)F)c2o1)c1ncnn1-c1ccc(C#N)cn1` [Example I-088, 6-{5-[(1S)-1-{[5-Chlor-7-(trifluormethyl)-1,3-benzoxazol-2-yl]amino}ethyl]-1H-1,2,4-triazol-1-yl}nicotinonitril], the pest or weed control at 5 µg/cm2 [2] was 100%, the pest or weed control at 160 µg/disc, 500 g/ha [7] was 100% and the “activity” value [3] was 90%. For the same compound, the mortality at 500 g/ha [9] was 83%.
Work on `C[C@H](Nc1nc2c(Cl)cc(C(F)(F)F)cn2n1)c1ncnn1-c1ncccn1` [Example I-092, 8-chloro-N-{(1S)-1-[1-(pyrimidin-2-yl)-1H-1,2,4-triazol-5-yl]ethyl}-6-(trifluoromethyl)[1,2,4]triazolo[1,5-a]pyridin-2-amine] yielded a pest or weed control at 0.02 mg [1] of 100%, a pest or weed control at 5 µg/cm2 [2] of 100% and a pest or weed control at 5 µg/cm2, 5 µg/cm2 [5] of 90%. The mortality at 100 ppm [13] was 100% and the mortality at 100 g/ha [4] was 90%.
For `C[C@H](Nc1nc2cc(Cl)c(Cl)cc2o1)c1ncnn1-c1ncccn1` [Example I-016], the pest or weed control at 0.02 mg [1] was 100%, the pest or weed control at 5 µg/cm2 [2] was 100% and the pest or weed control at 100 g/ha [7] was 100%. It also gave a pest or weed control at 160 µg/disc, 500 g/ha [7] of 100%, a mortality at 500 g/ha [9] of 100% and a mortality at 500 g/ha [14] of 90%.
For `C[C@H](Nc1nc2cc(Cl)cc(C(F)(F)F)c2o1)c1ncnn1-c1ccc(C(F)(F)F)cn1` [Example I-087, 5-Chlor-7-(trifluormethyl)-N-[(1S)-1-{1-[5-(trifluormethyl)pyridin-2-yl]-1H-1,2,4-triazol-5-yl}ethyl]-1,3-benzoxazol-2-amin], the pest or weed control at 5 µg/cm2 [2] was 100% and the “activity” value [3] was 90%.
For `C[C@H](Nc1nc2c(Cl)cc(C(F)(F)F)cn2n1)c1ncnn1-c1ncc(Br)cn1` [Example I-093, N-{(1S)-1-[1-(5-bromopyrimidin-2-yl)-1H-1,2,4-triazol-5-yl]ethyl}-8-chloro-6-(trifluoromethyl)[1,2,4]triazolo[1,5-a]pyridin-2-amine], the pest or weed control at 5 µg/cm2 [2] was 100%, the pest or weed control at 5 µg/cm2, 5 µg/cm2 [5] was 100% and the mortality at 100 ppm [13] was 100%. The mortality at 100 g/ha [4] was 90%.
With `C[C@H](Nc1nc2cc(Cl)cc(Cl)c2o1)c1ncnn1-c1ncccn1` [Example I-013] the pest or weed control at 5 µg/cm2 [2] was 100%, the mortality at 100 ppm [13] was 90% and the pest or weed control at 160 µg/disc, 500 g/ha [7] was 100%. The mortality at 500 g/ha [4] was 100%.
